Holding throughout (assay type): functional
What all share (parameters): concentration or dose not given beside the values

The test system of experiment [1] is Plasmodium falciparum. Description: MMV: P. falciparum NF54 functionally mature Stage V gametocytes were incubated for 24 hr in the presence of the test compounds. Gamete formation was then triggered by addition of 2uM xantheurenic acid and temperature decrease to ~20C. Female gamete formation was recorded 24 hr later by automated microscopy detection of surface labelling of female gametes with a Cy3-conjugated antibody reactive to Pfs25. All compounds were tested in 4 independent experiments and data presented here is the mean. Conditions: NF54, 24 h.

The next experiment deals with Plasmodium berghei. Briefly: MMV: P. berghei-infected blood was withdrawn from mice by cardiac pucture before being immediately added to ookinete culture medium containing test compounds. 26 hr later, GFP-positive ookinetes were identified and counted by automated microscopy. All compounds were tested in 4 independent experiments and data presented here is the mean.

Experiment [2] deals with Plasmodium falciparum. Description: MMV: P. falciparum NF54 functionally mature Stage V gametocytes were incubated for 24 hr in the presence of the test compounds. Gamete formation was then triggered by addition of 2uM xantheurenic acid and temperature decrease to ~20C. Male gamete exflagellation was recorded and analysed by automated microscopy after 20 min. All compounds were tested in 4 independent experiments and data presented here is the mean.

Our source for the inhibition values is ChEMBL document CHEMBL3301451, “MMV Malaria Box gametocyte functional viability assay screening”.

What is called inhibition is the drop in the measured response relative to a control, in per cent. Take `CCOc1cc(CNC(C)C(O)c2ccccc2)cc(Cl)c1OCC` (stereo not given): the inhibition in the experiment with Plasmodium falciparum [1] is -44.5%; in the experiment on Plasmodium berghei, -7.956%; with Plasmodium falciparum [2], 11.6%.

`COc1ccc2nc(C)cc(Nc3ccccc3O)c2c1`: the inhibition is -42% in the experiment with Plasmodium falciparum [1], -6.855% in the experiment with Plasmodium berghei and -8.38% in the experiment with Plasmodium falciparum [2].

For `COc1ccc(-c2nc(N3CCN(C(=O)C4CCCCC4)CC3)c3c4c(sc3n2)CCCC4)cc1`, the inhibition is -9.88% in the experiment on Plasmodium falciparum [1], -8.277% in the experiment on Plasmodium berghei and 1.21% in the experiment on Plasmodium falciparum [2].

As to `Cc1sc(NC(=O)c2ccco2)c(C(c2cccnc2)N2CCC(Cc3ccccc3)CC2)c1C` (stereo not given), the values for the inhibition in the experiment on Plasmodium falciparum [1], in the experiment on Plasmodium berghei and with Plasmodium falciparum [2] were -26%, -7.977% and 9.35%, respectively.

Take `Cc1cc(N2CCCC2)nc(Nc2ccc(NC(=O)CCc3ccccc3)cc2)n1`: the inhibition in the experiment on Plasmodium falciparum [1] was -8.07%; in the experiment on Plasmodium berghei, -8.954%; with Plasmodium falciparum [2] it was -19.1%.

Consider `N#Cc1nc(Cc2cccc3ccccc23)oc1N1CCN(C(c2ccccc2)c2ccccc2)CC1`, for which the inhibition in the experiment with Plasmodium falciparum [1] was -38.4%; with Plasmodium berghei, -7.443%; with Plasmodium falciparum [2], 10.2%.

`COC(=O)c1ccc(Cl)c2c1C1C=CCC1C(c1cccc3ccccc13)N2` (stereo not given): the inhibition in the experiment with Plasmodium falciparum [1] is 10.4%; with Plasmodium berghei, -8.751%; in the experiment on Plasmodium falciparum [2], 42.4%.

Regarding `CN(N=O)C1=C(NC2CCCCC2)C(=O)c2ccccc2C1=O`, the inhibition in the experiment with Plasmodium falciparum [1] is -27.6%; in the experiment on Plasmodium berghei it was -8.019%; with Plasmodium falciparum [2], 10.5%.

Consider `O=C(Nc1ccccc1O)c1ccc(Oc2cccc(C(=O)Nc3ccccc3O)c2)cc1`, for which the inhibition in the experiment with Plasmodium falciparum [1] was -9.72%; with Plasmodium berghei, -7.561%; in the experiment on Plasmodium falciparum [2] it was 15.9%.

On to `CCCCCC(=O)N1c2ccccc2N=C2CC(c3ccc(OC)c(OC)c3)CC(O)=C2C1c1ccc(C(F)(F)F)cc1` (stereo not given), for which the inhibition in the experiment on Plasmodium falciparum [1] is -11.5%; in the experiment with Plasmodium berghei, -9.202%; with Plasmodium falciparum [2], 59.4%.

Turning to `Cc1cc(NCCN2CCCCC2)c2ccc3ccccc3c2n1`, the figures for the inhibition in the experiment on Plasmodium falciparum [1], with Plasmodium berghei and in the experiment on Plasmodium falciparum [2] were 7.19%, -8.584% and -47.9%, respectively.

With `COCCNCC(O)Cn1c2ccc(Cl)cc2c2cc(Cl)ccc21` (stereo not given), the inhibition with Plasmodium falciparum [1] was -7.62%; in the experiment on Plasmodium berghei it was -6.812%; in the experiment with Plasmodium falciparum [2], -2.59%.

As for `O=C(NC1CCN(Cc2ccccc2)CC1)c1cc(-c2ccncc2)nc2ccc(Cl)cc12`, the figures for the inhibition with Plasmodium falciparum [1], with Plasmodium berghei and in the experiment with Plasmodium falciparum [2] were -10.1%, -9.022% and -6.34%, respectively.

As to `CCC(O)c1ccc(Br)cc1NC(=O)c1cccc(Cl)c1` (stereo not given), the inhibition was -44% in the experiment on Plasmodium falciparum [1], -8.417% in the experiment with Plasmodium berghei and 4.9% with Plasmodium falciparum [2].

Turning to `COc1ccc2nc(N)nc(C)c2c1`, the inhibition in the experiment on Plasmodium falciparum [1] was 6.91%; with Plasmodium berghei, -8.497%; in the experiment on Plasmodium falciparum [2] it was 45.7%.

With `Cc1[nH]c(-c2ccc(F)cc2)cc1C(=O)NC1CCN(Cc2ccccc2)CC1`, the values for the inhibition in the experiment with Plasmodium falciparum [1], in the experiment on Plasmodium berghei and in the experiment with Plasmodium falciparum [2] were -3.53%, -7.189% and 7.06%, respectively.

Turning to `CC1CN(C(=O)c2sc3ccccc3c2Cl)CC(C)O1` (stereo not given), the inhibition was -12.3% in the experiment with Plasmodium falciparum [1], -8.352% with Plasmodium berghei and 35.6% with Plasmodium falciparum [2].

In the case of `COc1ccc(CCN2CCC(CN(C)Cc3cnn(-c4ccccc4)c3)CC2)cc1`, the inhibition is -27.5% in the experiment on Plasmodium falciparum [1], -8.146% with Plasmodium berghei and -4.67% with Plasmodium falciparum [2].

In the case of `CCOc1cc(Cl)c(C(C)NC(=O)c2cccc(OC)c2)cc1OCC` (stereo not given), the results for the inhibition in the experiment on Plasmodium falciparum [1], with Plasmodium berghei and in the experiment on Plasmodium falciparum [2] were -14.9%, -8.297% and 3.61%, respectively.

Regarding `FC(F)(F)c1cccc(Nc2nc(-c3ccccc3)nc3ncccc23)c1`, the inhibition in the experiment with Plasmodium falciparum [1] is 8.9%; in the experiment on Plasmodium berghei it was -9.471%; in the experiment on Plasmodium falciparum [2] it was 10.8%.

`Cc1ccc(Cl)cc1N1CCN(CCCNC(=O)C2CCN(c3nc4ccccc4[nH]3)CC2)CC1`: the results for the inhibition in the experiment on Plasmodium falciparum [1], with Plasmodium berghei and in the experiment on Plasmodium falciparum [2] were -57.2%, -9.077% and 5%, respectively.

As to `Cc1cc(Nc2ccc(OCc3ccccc3)cc2)nc2cc(O)ccc12`, the inhibition in the experiment with Plasmodium falciparum [1] was 6.66%; in the experiment with Plasmodium berghei it was -6.891%; in the experiment on Plasmodium falciparum [2], 32.7%.

Take `Cn1c(C(=O)c2cccc3ccccc23)nc2ccccc21`: the figures for the inhibition with Plasmodium falciparum [1], in the experiment on Plasmodium berghei and in the experiment on Plasmodium falciparum [2] were -20.6%, -7.647% and -24.7%, respectively.

On to `N=c1c2ccccc2nnn1-c1cccc(C(F)(F)F)c1`, for which the inhibition in the experiment on Plasmodium falciparum [1] was 7.15%; in the experiment with Plasmodium berghei it was -9.695%; in the experiment with Plasmodium falciparum [2] it was 51.2%.

As for `CCOc1cc(Cl)c(C(C)NC(=O)c2ccccc2)cc1OCC` (stereo not given), the inhibition is -37% in the experiment with Plasmodium falciparum [1], -7.982% with Plasmodium berghei and 32.8% in the experiment on Plasmodium falciparum [2].

In the case of `O=C(Nc1ccc(CN2CCOCC2)cc1)c1ccc(-c2ccc(Br)cc2)o1`, the inhibition is -17.9% in the experiment on Plasmodium falciparum [1], -6.99% in the experiment with Plasmodium berghei and 14.4% in the experiment on Plasmodium falciparum [2].

As to `CC(=O)NCCc1nc2ccccc2n1Cc1ccc(C(C)C)cc1`, the inhibition in the experiment with Plasmodium falciparum [1] was -12.8%; in the experiment on Plasmodium berghei, -8.216%; with Plasmodium falciparum [2], -6.3%.

Regarding `O=C(Nc1ccc(-c2nc3cc(NC(=O)c4ccc(Cl)cc4)ccc3[nH]2)cc1)c1ccc(Cl)cc1`, the inhibition is -21.8% with Plasmodium falciparum [1], -7.523% with Plasmodium berghei and -17.6% with Plasmodium falciparum [2].

For `COc1nc(Nc2ccc(C(C)C)cc2)nc(OC)n1`, the inhibition in the experiment on Plasmodium falciparum [1] was -59.5%; with Plasmodium berghei, -7.623%; in the experiment with Plasmodium falciparum [2], -0.697%.

As to `Cc1cc(N(C)C)nc(Nc2ccc(NC(=O)Nc3ccccc3)cc2)n1`, the inhibition with Plasmodium falciparum [1] is -35.4%; in the experiment with Plasmodium berghei it was -9.07%; in the experiment on Plasmodium falciparum [2], 33.6%.

On to `O=C(CSc1ccc2nnc(-c3cccc(F)c3)n2n1)Nc1ccc2c(c1)OCO2`, for which the figures for the inhibition with Plasmodium falciparum [1], with Plasmodium berghei and in the experiment on Plasmodium falciparum [2] were -24.8%, -8.438% and -1.24%, respectively.

As for `Cc1cc(NC(=O)c2ccc(-c3ccccc3)cc2)no1`, the inhibition in the experiment with Plasmodium falciparum [1] was -45.6%; in the experiment on Plasmodium berghei it was -9.578%; in the experiment on Plasmodium falciparum [2], 18.9%.

As to `COc1ccc(-c2nonc2NC(=O)c2cccc(C)c2)cc1OC`, the inhibition in the experiment with Plasmodium falciparum [1] is 3.1%; in the experiment with Plasmodium berghei, -9.338%; in the experiment with Plasmodium falciparum [2], 31.3%.

In the case of `Cc1cc(C)c2nc(N3CCC(C(=O)NCCCN4CCC(N5CCCCC5)CC4)CC3)sc2c1`, the values for the inhibition in the experiment on Plasmodium falciparum [1], with Plasmodium berghei and in the experiment on Plasmodium falciparum [2] were 21.7%, -9.223% and 8.94%, respectively.

As for `O=C(Nc1ccsc1C(=O)NC1CCCCC1)c1ccc(F)cc1`, the inhibition with Plasmodium falciparum [1] was -14.2%; in the experiment with Plasmodium berghei, -7.294%; in the experiment on Plasmodium falciparum [2] it was 0.722%.

In the case of `CCOc1cccc2sc(N(Cc3cccnc3)C(=O)C3CCCCC3)nc12`, the figures for the inhibition in the experiment with Plasmodium falciparum [1], in the experiment on Plasmodium berghei and in the experiment with Plasmodium falciparum [2] were -5.49%, -7.751% and -1.33%, respectively.

Turning to `CC(C)(C)c1ccc(C(=O)Nc2c3c(nn2-c2cccc(Cl)c2)CSC3)cc1`, the inhibition in the experiment with Plasmodium falciparum [1] was -5.95%; with Plasmodium berghei, -7.14%; in the experiment with Plasmodium falciparum [2], 25.7%.

As to `CCOc1ccc(-c2nonc2NC(=O)c2cccc(C)c2)cc1OCC`, the values for the inhibition in the experiment with Plasmodium falciparum [1], in the experiment with Plasmodium berghei and in the experiment with Plasmodium falciparum [2] were -7.75%, -6.946% and 52.4%, respectively.

Consider `CCN(CC)c1cc(C)c2cc(NC(=O)c3cccc(OC)c3)ccc2n1`, for which the inhibition is -22.1% with Plasmodium falciparum [1], -7.501% in the experiment with Plasmodium berghei and -1.32% in the experiment on Plasmodium falciparum [2].

As for `CC(C)(C)CC(C)(C)NCC(O)COc1ccc2c(c1)CCC2.Cl` (stereo not given), the inhibition was -4.34% in the experiment with Plasmodium falciparum [1], -7.207% with Plasmodium berghei and -54.4% with Plasmodium falciparum [2].

As for `CSc1ccccc1C(=O)Nc1nc(-c2ccccn2)cs1`, the inhibition is -18.6% with Plasmodium falciparum [1], -9.487% with Plasmodium berghei and 20.5% in the experiment on Plasmodium falciparum [2].

In the case of `CC(O)(c1ccc(Cl)cc1)C(CN1CCCCC1)c1ccccc1.Cl` (stereo not given), the inhibition in the experiment on Plasmodium falciparum [1] is -1.41%; with Plasmodium berghei, -9.711%; in the experiment on Plasmodium falciparum [2], -5.37%.

Regarding `CCOC(=O)C1(Cc2ccccc2)CCN(Cc2cccc(OC)c2O)CC1`, the inhibition is -9.84% in the experiment with Plasmodium falciparum [1], -6.801% in the experiment with Plasmodium berghei and -10.2% with Plasmodium falciparum [2].

As for `COc1ccc(OC)c(C2C3=C(CC(C)(C)CC3=O)N(c3ccc(Cl)c(Cl)c3)C3=C2C(=O)CC(C)(C)C3)c1`, the values for the inhibition with Plasmodium falciparum [1], with Plasmodium berghei and with Plasmodium falciparum [2] were -10.6%, -8.364% and -60%, respectively.

Take `CCCCCCOC(=O)C1=C(C)NC(=O)NC1c1ccccc1F` (stereo not given): the inhibition was -1.36% in the experiment on Plasmodium falciparum [1], -7.086% in the experiment on Plasmodium berghei and 11.4% with Plasmodium falciparum [2].

For `CCCCCCC(O)(c1ccc(F)cc1)C(CN1CCOCC1)c1ccccc1.Cl` (stereo not given), the inhibition was 17.7% with Plasmodium falciparum [1], -9.863% in the experiment on Plasmodium berghei and -64% with Plasmodium falciparum [2].

For `CCOc1c(Br)cc(C2C(C(=O)OC)=CN(C)C=C2C(=O)OC)cc1OC`, the figures for the inhibition in the experiment on Plasmodium falciparum [1], in the experiment with Plasmodium berghei and with Plasmodium falciparum [2] were 4.74%, -9.574% and 8.8%, respectively.

Turning to `COc1ccc(C(=O)C2CC2c2ccc(Cl)cc2)cc1` (stereo not given), the inhibition in the experiment with Plasmodium falciparum [1] was -10.6%; with Plasmodium berghei it was -7.167%; in the experiment on Plasmodium falciparum [2], 19.4%.

With `CCOC(=O)c1cnc2ccc(OC)cc2c1NCc1ccccc1`, the values for the inhibition with Plasmodium falciparum [1], in the experiment on Plasmodium berghei and in the experiment on Plasmodium falciparum [2] were -40.9%, -6.823% and -12.8%, respectively.

Take `CCCCc1c(CCC)c(=N)c2ccccc2n1C.I`: the inhibition in the experiment with Plasmodium falciparum [1] was -25.6%; in the experiment with Plasmodium berghei, -7.021%; in the experiment with Plasmodium falciparum [2] it was -57%.
